Reference: patent publication US6653294B2, “Use of chitinous materials for inhibiting cellular nitric oxide production” (Food Industry Research & Development Institute, priority 2000, dated 2003)

Columns and labels:
[1] = tested on: activated RAW 264.7 cells; experiment: Measurement of NO production via nitrite detection (Griess) in IFN-γ and LPS activated RAW 264.7 cells; type: cell-based, mouse; details: for Nitrite Production / Nitrite Production as Percentage of Control: IFN-γ + LPS; for Effect on NO production, in words (Table 2): conditions of Table 2 (2 and 10 μg/ml)
Method: (§1) NIH/3T3 (mouse embryo fibroblast, CCRC 60008) and RAW 264.7 (mouse monocyte/macrophage, CCRC 60001) cell lines were obtained from Culture Collection and Research Center (CCRC), Taiwan. Both cell lines were cultured in Dulbecco's modified essential medium (DMEM, GIBCO BRL, Rockville, Md.) containing 1.5 g/L NaHCO3 supplemented with 10% fetal bovine serum (Hyclone, Logan, Utah) and incubated in 5% CO2 at 37° C. Cell cultures were examined for mycoplasma contamination with the fluorescent stain Hoechst 33258 (Hay et al., ATCC Quality Control Methods for Cell Lines, American Type Culture Collection, Manassas, Va., 1992, pp 23-33). All cultures described in the present example were mycoplasma-free.
Two mixtures were prepared. A mixture of collagen type I (rat tail, Sigma, St. Louis, Mo.) was dissolved in 0.1 N acetic acid to produce a 1 mg/ml collagen solution. Chitin was added to 0.1 N acetic acid until a 1 mg/ml mixture was achieved, and the mixture was sonicated for 3 minutes using a Labsonic U sonicator, (Braun Biotech International, Germany). After being autoclaved at 121° C. for 15 minutes, the chitin mixture became a slurry of fine wires. Microtiter tissue culture plates (96-well) were rinsed with Dulbecco's phosphate-buffer saline without Ca^+2 and Mg^+2 (D-PBS, GIBCO BRL). Five microliters of collagen solution or different amounts of the chitin mixture were then added to each well. The plates were then air-dried in a laminar flow hood and stored at 4° C. for up to a week.
Nitric oxide (NO) production was indirectly quantified by measuring the accumulation of nitrite (NO2^−) in the culture media using Griess reagents and sodium nitrite as a standard (Green et al., Anal. Biochem. 126:131-138, 1982; and Ignarro et al., Proc. Natl. Acad. Sci. USA 90:8103-8107, 1993). For nitrite assays, RAW 264.7 cells were subcultured in coated 96-well tissue culture plates at 1×10^5 cells/well and incubated for 24 hours. The culture media were changed to phenol red-free, serum-free DMEM containing 100 U/ml interferon-γ(IFN-γ, recombinant murine; GIBCO BRL) and 100 ng/ml lipopolysaccharide (LPS, Escherichia coli serotype 0128:B12; Sigma). The samples were then tested as described in Rollo et al., J. Leukoc. Biol. 60:397-404, 1996.
To measure the effect of chitin on NO production, cells were subcultured directly in the chitin-coated 96-well tissue culture plates. After overnight incubation, cells became adhered to the bottom of chitin-coated wells. The culture media were removed and replaced with media supplemented with IFN-γ and LPS as described above. After 48 hours incubation, […] of culture supernatants were mixed sequentially with equal volumes of 60 mM sulfanilamide (Sigma) in 3 N HCl and 4 mM N-1-naphthylethylenediamine (Sigma) and then shaken for 5 minutes at room temperature as described in Rollo et al., supra. Nitrite concentration was measured by reading the sample's absorbance at 540 nm using a microplate reader (MRX, Dynex Technologies, Inc., VA).

RAW 264.7 cells = experiment: Cytotoxicity test (MTT cell growth), RAW 264.7; type: cell-based, mouse
Method: as §1
Two mixtures were prepared. […]
For chitin cytotoxicity experiment, cells were subcultured in 96-well tissue culture plates precoated with different amount of chitin or with collagen at a density of 2000 cells/well and incubated for 48 hours. […] Cytotoxicity was measured using the dye 3-(4,5-dimethylthiazol-2-yl)-2,5-diphenyl tetrazolium bromide (MTT; Merck Co., Germany) and following the methods described in Mosmann, J. Immunol. […]
The cytotoxicity associated with chitin and chitosan was evaluated for both mouse embryonic fibroblast NIH/3T3 cells and mouse monocyte-macrophage RAW 264.7 cells. […]

[2] = 5 μl per well (1 mg/ml) coated, 48 hours

## Collagen: collagen type I (rat tail, Sigma), coating comparison [reference compound]
[1]; [2]
  Nitrite Production: 73.4 ± 0.9 µM
  Nitrite Production as Percentage of Control: 99%
[1]; conditions of Table 1
  Effect on NO production, in words (Table 1): did not significantly affect NO production

## CC(=O)N[C@H]1[C@H](O[C@H]2[C@H](O)[C@@H](NC(C)=O)C(O)O[C@@H]2CO)O[C@H](CO)[C@@H](O)[C@@H]1O (stereo partly drawn) [chitobiose, 2-acetamido-2-deoxy-4-O-(2-acetamido-2-deoxy-b-D-glucopyranosyl)-D-glucopyranose]
[1]; 2 μg/ml in culture medium
  Nitrite Production: 64.9 ± 0.8 µM
  Nitrite Production as Percentage of Control: 98.9%
[1]; 10 μg/ml in culture medium
  Nitrite Production: 64.1 ± 0.9 µM
  Nitrite Production as Percentage of Control: 97.7%

## chitotetraose
[1]; 2 μg/ml in culture medium
  Nitrite Production: 63.4 ± 0.5 µM
  Nitrite Production as Percentage of Control: 96.6%
[1]; 10 μg/ml in culture medium
  Nitrite Production: 61.3 ± 0.6 µM
  Nitrite Production as Percentage of Control: 93.4%

## N[C@H]1C(O)O[C@H](CO)[C@@H](O)[C@@H]1O (stereo partly shown) [glucosamine, reference compound]
[1]; 10 μg/ml in culture medium
  Nitrite Production: 64.3 ± 0.8 µM
  Nitrite Production as Percentage of Control: 98.0%
RAW 264.7 cells
  Cytotoxicity (MTT): not cytotoxic

## CC(=O)N[C@H]1[C@H](O[C@H]2[C@H](O)[C@@H](NC(C)=O)[C@H](O[C@H]3[C@H](O)[C@@H](NC(C)=O)C(O)O[C@@H]3CO)O[C@@H]2CO)O[C@H](CO)[C@@H](O[C@@H]2O[C@H](CO)[C@@H](O[C@@H]3O[C@H](CO)[C@@H](O[C@@H]4O[C@H](CO)[C@@H](O)[C@H](O)[C@H]4NC(C)=O)[C@H](O)[C@H]3NC(C)=O)[C@H](O)[C@H]2NC(C)=O)[C@@H]1O (stereo partly shown) [chitohexose]
[1]; 2 μg/ml in culture medium
  Nitrite Production: 41.3 ± 0.8 µM
  Nitrite Production as Percentage of Control: 63%
[1]; 10 μg/ml in culture medium
  Nitrite Production: 35.8 ± 2.9 µM
  Nitrite Production as Percentage of Control: 54.5%
[1]
  Effect on NO production, in words (Table 2): did substantially decrease NO production

## CC(=O)N[C@H]1[C@H](O[C@H]2[C@H](O)[C@@H](NC(C)=O)C(O)O[C@@H]2CO)O[C@H](CO)[C@@H](O[C@@H]2O[C@H](CO)[C@@H](O)[C@H](O)[C@H]2NC(C)=O)[C@@H]1O (stereo partly shown) [chitotriose]
[1]; 2 μg/ml in culture medium
  Nitrite Production: 61.5 ± 0.9 µM
  Nitrite Production as Percentage of Control: 93.8%
[1]; 10 μg/ml in culture medium
  Nitrite Production: 61.1 ± 0.2 µM
  Nitrite Production as Percentage of Control: 93.1%

## CC(=O)N[C@H]1C(O)O[C@H](CO)[C@@H](O)[C@@H]1O (stereo partly shown) [NAGA, N-acetylglucosamine, reference compound]
[1]; 10 μg/ml in culture medium
  Nitrite Production: 66.7 ± 0.9 µM
  Nitrite Production as Percentage of Control: 102%
RAW 264.7 cells
  Cytotoxicity (MTT): not cytotoxic

## CC(=O)N[C@@H]1[C@@H](O)[C@H](O[C@@H]2O[C@H](CO)[C@@H](O[C@@H]3O[C@H](CO)[C@@H](O[C@@H]4O[C@H](CO)[C@@H](O[C@@H]5O[C@H](CO)[C@@H](O)[C@H](O)[C@H]5NC(C)=O)[C@H](O)[C@H]4NC(C)=O)[C@H](O)[C@H]3NC(C)=O)[C@H](O)[C@H]2NC(C)=O)[C@@H](CO)O[C@H]1O [chitopentose]
[1]; 2 μg/ml in culture medium
  Nitrite Production: 47.0 ± 0.5 µM
  Nitrite Production as Percentage of Control: 70.6%
[1]; 10 μg/ml in culture medium
  Nitrite Production: 42.7 ± 1.2 µM
  Nitrite Production as Percentage of Control: 65.1%
[1]
  Effect on NO production, in words (Table 2): did substantially decrease NO production
